{
  "source": "patent US20240358748A1",
  "about": "“AMORPHOUS DISPERSION OF FERRIC MALTOL AND THE PREPARATION PROCESS THEREOF” (Indena S.P.A., priority 2021, published 2024)",
  "experiment": "Accelerated stability study (solid form checked by X-ray powder diffraction)",
  "type": "physicochemical",
  "settings": "after 12 days at room temperature and relative humidity of 75%±5%",
  "experimental": "The X-ray diffraction pattern was recorded on a Bruker D2-Phaser diffractometer. The X-ray generator was set to 30 kV and 10 mA, using Cuk as radiation source. The sample was prepared in a sample holder and irradiated for an irradiation length of 10 mm. The data were recorded between 2 and 50 2θ degrees every 0.02 2θ degrees, with a recording time of 3 seconds per 2θ degree.\nThe amorphous solid dispersion prepared according to Example 1, and ferric maltol in amorphous form, prepared according to the procedure reported in Example 1 but without the addition of Soluplus®, underwent an accelerated stability study.",
  "data": [
    {"molecule": "Cc1occc(=O)c1[O-].Cc1occc(=O)c1[O-].Cc1occc(=O)c1[O-].[Fe+3]", "note": "[ferric maltol in amorphous form, 3-hydroxy-2-methyl-4H-pyran-4-one: iron (III) (3:1)]", "values": [
      {"measurement": "solid form after storage (X-ray diffractogram)", "value": "attributable to ferric maltol Form I"},
      {"measurement": "solid form after storage (X-ray diffractogram)", "setting": "listed as ferric maltol", "value": "tends to be converted, at least partly, to a crystalline structure"}
    ]}
  ]
}
